For one molecule, mortality results are on record in patent publication US8895574B2, “Benzyloxypyrimidine derivative, agricultural/ horticultural insecticide comprising derivative and method for using same” (Nihon Nohyaku Co., Ltd., priority 2010, dated 2014).

In this assay the test system is cattle tick (Haemaphysalis longicornis). As to the kind of experiment: Acaricidal effect on cattle tick, absorbent cotton in glass bottle. Format: in vivo. As to conditions: 96 h, 100 ppm drug solution, 2 ml, 4 days after inoculation, read-out: acaricidal effect against cattle tick (corrected mortality, judged by criterion). The protocol:
Acaricidal Effect on Cattle Tick (Haemaphysalis longicornis)
An absorbent cotton was placed on the basement of a glass bottle (diameter 3 cm×height 4.5 cm). The pyrimidine derivative of the present invention represented by the formula (I) or a salt thereof was dispersed in water to give a diluted drug solution (100 ppm). The drug solution (2 ml) was added dropwise. Cattle ticks were inoculated by 5 each, and the bottle was capped with a mesh. After 4 days from the inoculation, the dead ticks and live ticks were counted, and the corrected mortality was calculated by the following formula. corrected mortality (%)=(survival rate in untreated group−survival rate in treated group)/(survival rate in untreated group)×100 Diagnostic criteria . . . as defined in Experimental Example 1

As to `COc1cncnc1OCc1ccc(C(C)(C)C)cc1` [1-1, 4-(4-t-butylbenzyloxy)-5-methoxypyrimidine], the mortality at 100 ppm lay within 50 to 79%.

For orientation: mortality means the percentage killed.
